Measured values reported in patent publication US10023570B2 (Array BioPharma, Inc., priority 2015, dated 2018).
Read-outs that look alike come from different tables or passages of the source.

Key:
[1] = target: N-terminal GST tagged recombinant human RET cytoplasmic domain (aa 658-end), wild type RET kinase (Homo sapiens (Human), UniProt P07949); test: RET Enzyme Assay (HTRF KinEASE-TK), wild type RET; assay type: biochemical; conditions: wild type RET, 1 mM ATP
[2] = target: human KDR protein in HEK-293 cells (Homo sapiens (Human), UniProt P35968); test: KDR Cell Assay (phospho-KDR in HEK-293 cells expressing inducible KDR); assay type: cell-based; conditions: pKDR Cell HEK 10% FBS IC50, HEK-293 cells expressing inducible KDR, VEGF stimulated
Method in brief: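 HEK-293 cells with inducible human KDR were treated with compound for 1 h in DMEM (0.25% DMSO final), then lysed. Phospho-KDR was quantified by Meso Scale immunoassay, expressed as percent of control, and IC50 taken where a 4-parameter logistic fit crossed 50 POC.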

[3] = target: Kif5b-RET fusion protein in HEK-293 cells (Homo sapiens, UniProt P07949); test: cell-based
[4] = HEK-293 cells expressing Kif5b-RET, phospho-RET(Tyr1062), read-out: KIF5B-RET pTYR1062 Cell IC50
[5] = HEK-293 cells expressing Kif5b-RET, read-out: KIF5B-RET pTYR1062 Cell IC50

Chain of N-terminal GST tagged recombinant human RET cytoplasmic domain (aa 658-end), wild type RET kinase (P07949 658-1114): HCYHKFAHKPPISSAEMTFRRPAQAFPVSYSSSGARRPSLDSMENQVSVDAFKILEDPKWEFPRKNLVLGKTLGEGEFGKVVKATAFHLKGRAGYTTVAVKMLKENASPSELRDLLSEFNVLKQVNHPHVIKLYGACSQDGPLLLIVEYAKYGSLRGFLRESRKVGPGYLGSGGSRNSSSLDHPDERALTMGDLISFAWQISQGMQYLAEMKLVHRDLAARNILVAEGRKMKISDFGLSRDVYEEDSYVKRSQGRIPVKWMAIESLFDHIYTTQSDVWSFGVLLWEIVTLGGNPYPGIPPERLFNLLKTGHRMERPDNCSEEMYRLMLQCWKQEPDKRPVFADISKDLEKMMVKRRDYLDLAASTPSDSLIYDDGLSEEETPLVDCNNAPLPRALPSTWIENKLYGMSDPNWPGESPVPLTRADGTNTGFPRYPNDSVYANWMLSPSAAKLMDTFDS
Chain of Kif5b-RET fusion protein in HEK-293 cells (P07949 29-1114 limits assumed): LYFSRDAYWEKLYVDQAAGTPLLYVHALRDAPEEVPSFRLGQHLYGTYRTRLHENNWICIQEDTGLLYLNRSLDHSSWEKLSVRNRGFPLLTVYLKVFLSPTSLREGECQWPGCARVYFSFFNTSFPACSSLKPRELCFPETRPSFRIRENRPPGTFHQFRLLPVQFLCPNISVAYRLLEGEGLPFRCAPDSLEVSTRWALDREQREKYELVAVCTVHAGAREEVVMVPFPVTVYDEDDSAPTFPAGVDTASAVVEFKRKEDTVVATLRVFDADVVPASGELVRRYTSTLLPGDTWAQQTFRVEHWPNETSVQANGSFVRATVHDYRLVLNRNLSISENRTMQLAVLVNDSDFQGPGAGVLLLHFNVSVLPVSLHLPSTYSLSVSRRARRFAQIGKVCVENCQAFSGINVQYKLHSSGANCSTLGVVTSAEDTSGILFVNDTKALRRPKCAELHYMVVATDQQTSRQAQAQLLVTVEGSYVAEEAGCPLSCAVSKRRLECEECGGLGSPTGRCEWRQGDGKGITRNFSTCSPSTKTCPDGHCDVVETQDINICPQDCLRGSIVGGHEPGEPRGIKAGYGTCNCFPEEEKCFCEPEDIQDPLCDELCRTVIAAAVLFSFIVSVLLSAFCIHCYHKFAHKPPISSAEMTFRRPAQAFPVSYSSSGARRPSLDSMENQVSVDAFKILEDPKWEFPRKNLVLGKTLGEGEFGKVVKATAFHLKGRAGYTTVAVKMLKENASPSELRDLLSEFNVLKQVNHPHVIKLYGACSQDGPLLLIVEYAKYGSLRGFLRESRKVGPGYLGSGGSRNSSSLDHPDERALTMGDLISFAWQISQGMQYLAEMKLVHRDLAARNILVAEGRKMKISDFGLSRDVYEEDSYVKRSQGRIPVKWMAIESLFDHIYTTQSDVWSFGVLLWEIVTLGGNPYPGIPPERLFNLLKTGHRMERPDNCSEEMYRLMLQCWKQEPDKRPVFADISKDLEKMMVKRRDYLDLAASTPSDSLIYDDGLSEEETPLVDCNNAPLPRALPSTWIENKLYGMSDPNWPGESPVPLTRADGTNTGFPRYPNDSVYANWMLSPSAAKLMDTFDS
Chain of human KDR protein in HEK-293 cells (P35968 20-1356): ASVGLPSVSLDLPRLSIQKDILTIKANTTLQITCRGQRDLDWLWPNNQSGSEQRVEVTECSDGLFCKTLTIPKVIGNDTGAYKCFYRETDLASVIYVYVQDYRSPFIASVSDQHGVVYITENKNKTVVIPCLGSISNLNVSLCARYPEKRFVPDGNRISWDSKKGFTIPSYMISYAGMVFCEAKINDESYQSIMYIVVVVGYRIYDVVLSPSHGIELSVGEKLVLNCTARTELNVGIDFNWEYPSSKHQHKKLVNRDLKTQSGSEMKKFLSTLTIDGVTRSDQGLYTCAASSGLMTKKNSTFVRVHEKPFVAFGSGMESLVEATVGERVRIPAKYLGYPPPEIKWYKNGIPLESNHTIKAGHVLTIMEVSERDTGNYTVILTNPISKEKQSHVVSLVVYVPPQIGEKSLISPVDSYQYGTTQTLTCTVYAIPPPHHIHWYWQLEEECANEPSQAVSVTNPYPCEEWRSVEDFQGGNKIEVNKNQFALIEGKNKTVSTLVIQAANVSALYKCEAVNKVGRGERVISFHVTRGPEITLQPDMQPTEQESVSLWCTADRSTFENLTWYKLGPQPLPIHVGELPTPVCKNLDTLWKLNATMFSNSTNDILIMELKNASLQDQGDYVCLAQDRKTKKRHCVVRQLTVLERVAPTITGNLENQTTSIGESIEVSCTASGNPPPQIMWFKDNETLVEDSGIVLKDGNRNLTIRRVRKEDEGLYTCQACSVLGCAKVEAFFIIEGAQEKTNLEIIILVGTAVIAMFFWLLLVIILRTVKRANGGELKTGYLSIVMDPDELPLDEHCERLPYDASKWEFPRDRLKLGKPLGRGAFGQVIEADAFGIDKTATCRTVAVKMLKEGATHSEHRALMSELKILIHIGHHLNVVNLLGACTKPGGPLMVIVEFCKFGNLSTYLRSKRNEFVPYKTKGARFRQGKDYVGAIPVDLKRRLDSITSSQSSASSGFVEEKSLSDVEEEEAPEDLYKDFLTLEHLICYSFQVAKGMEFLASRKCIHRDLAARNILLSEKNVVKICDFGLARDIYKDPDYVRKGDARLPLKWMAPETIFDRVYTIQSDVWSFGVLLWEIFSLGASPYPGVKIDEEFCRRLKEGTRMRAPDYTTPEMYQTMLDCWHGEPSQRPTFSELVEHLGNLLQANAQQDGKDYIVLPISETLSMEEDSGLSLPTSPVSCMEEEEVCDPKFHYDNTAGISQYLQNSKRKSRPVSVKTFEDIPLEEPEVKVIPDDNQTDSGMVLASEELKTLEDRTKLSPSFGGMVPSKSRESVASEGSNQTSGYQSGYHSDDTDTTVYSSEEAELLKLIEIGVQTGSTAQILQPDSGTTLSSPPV

Structure (SMILES)	IC50 [1]	IC50 ([2]; 10% FBS)	IC50 [3, 4]	IC50 ([3]; read-out: KIF5B-RET pTYR1062 Cell IC50)	IC50 [2]	IC50 [3]	IC50 [3, 5]
CC(C)[C@@H](O)C(=O)N1CCN(c2ccc(-c3cc(-c4cnn(C)c4)cn4ncc(C#N)c34)cn2)CC1 [Example 85, (R)-4-(6-(4-(2-hydroxy-3-methylbutanoyl)piperazin-1-yl)pyridin-3-yl)-6-(1-methyl-1H-pyrazol-4-yl)pyrazolo[1,5-a]pyridine-3-carbonitrile]	7.6 nM	771 nM	6.5 nM	–	–	–	–
COCC(C)NC(=O)C1CCN(c2ccc(-c3cc(-c4cnn(C)c4)cn4ncc(C#N)c34)cn2)CC1 (stereo not drawn) [Example 232, 1-(5-(3-cyano-6-(1-methyl-1H-pyrazol-4-yl)pyrazolo[1,5-a]pyridin-4-yl)pyridin-2-yl)-N-(1-methoxypropan-2-yl)piperidine-4-carboxamide]	12.1 nM	812 nM	24.4 nM	–	–	–	–
COCC(=O)N1CCN(c2ccc(-c3cc(-c4cnn(C)c4)cn4ncc(C#N)c34)cn2)CC1 [Example 40, 4-(6-(4-(2-methoxyacetyl)piperazin-1-yl)pyridin-3-yl)-6-(1-methyl-1H-pyrazol-4-yl)pyrazolo[1,5-a]pyridine-3-carbonitrile 2,2,2-trifluoroacetate]	13.7 nM	221 nM	–	11.2 nM	–	–	–
Cn1cc(-c2cc(-c3ccc(N4CCC(C)(C(=O)NCCC(F)(F)F)CC4)nc3)c3c(C#N)cnn3c2)cn1 [Example 250, 1-(5-(3-cyano-6-(1-methyl-1H-pyrazol-4-yl)pyrazolo[1,5-a]pyridin-4-yl)pyridin-2-yl)-4-methyl-N-(3,3,3-trifluoropropyl)piperidine-4-carboxamide]	7 nM	468 nM	6.1 nM	–	–	–	–
COCCNC(=O)N1CCN(c2ccc(-c3cc(-c4cnn(C)c4)cn4ncc(C#N)c34)cn2)CC1 [Example 135, 4-(5-(3-cyano-6-(1-methyl-1H-pyrazol-4-yl)pyrazolo[1,5-a]pyridin-4-yl)pyridin-2-yl)-N-(2-methoxyethyl)piperazine-1-carboxamide]	12.8 nM	1030 nM	35.4 nM	–	–	–	–
Cn1cc(-c2cc(-c3ccc(N4CCN(C(=O)CC(C)(C)O)CC4)nc3)c3c(C#N)cnn3c2)cn1 [Example 79, 4-(6-(4-(3-hydroxy-3-methylbutanoyl)piperazin-1-yl)pyridin-3-yl)-6-(1-methyl-1H-pyrazol-4-yl)pyrazolo[1,5-a]pyridine-3-carbonitrile]	14.5 nM	1260 nM	31.3 nM	–	–	–	–
CC(C)NC(=O)CC1CCN(c2ccc(-c3cc(-c4cnn(C)c4)cn4ncc(C#N)c34)cn2)CC1 [Example 249, 2-(1-(5-(3-cyano-6-(1-methyl-1H-pyrazol-4-yl)pyrazolo[1,5-a]pyridin-4-yl)pyridin-2-yl)piperidin-4-yl)-N-isopropylacetamide]	26.6 nM	998 nM	33.5 nM	–	–	–	–
COC(CNC(=O)C1CCN(c2ccc(-c3cc(-c4cnn(C)c4)cn4ncc(C#N)c34)cn2)CC1)C(C)C (stereo not drawn) [Example 236, 1-(5-(3-cyano-6-(1-methyl-1H-pyrazol-4-yl)pyrazolo[1,5-a]pyridin-4-yl)pyridin-2-yl)-N-(2-methoxy-3-methylbutyl)piperidine-4-carboxamide]	4 nM	477 nM	3.2 nM	–	–	–	–
CCC1(C(=O)NCC(C)(C)O)CCN(c2ccc(-c3cc(-c4cnn(C)c4)cn4ncc(C#N)c34)cn2)CC1 [Example 258, 1-(5-(3-cyano-6-(1-methyl-1H-pyrazol-4-yl)pyrazolo[1,5-a]pyridin-4-yl)pyridin-2-yl)-4-ethyl-N-(2-hydroxy-2-methylpropyl) piperidine-4-carboxamide]	12.5 nM	505 nM	10 nM	–	–	–	–
COc1ccccc1CN1CCN(c2ccc(-c3cc(-c4cnn(C)c4)cn4ncc(C#N)c34)cn2)CC1 [Example 451, 4-(6-(4-(2-methoxybenzyl)piperazin-1-yl)pyridin-3-yl)-6-(1-methyl-1H-pyrazol-4-yl)pyrazolo[1,5-a]pyridine-3-carbonitrile]	4.9 nM	–	–	–	593 nM	4.9 nM	–
CC(C)C(=O)NC1(C)CCN(c2ccc(-c3cc(-c4cnn(C)c4)cn4ncc(C#N)c34)cn2)CC1 [Example 203]	5.8 nM	560 nM	5.2 nM	–	–	–	–
CC(C)NC(=O)NC1CCN(c2ccc(-c3cc(-c4cnn(C)c4)cn4ncc(C#N)c34)cn2)CC1 [Example 187, 1-(1-(5-(3-cyano-6-(1-methyl-1H-pyrazol-4-yl)pyrazolo[1,5-a]pyridin-4-yl)pyridin-2-yl)piperidin-4-yl)-3-isopropylurea]	15.9 nM	871 nM	20.4 nM	–	–	–	–
COC(CNC(=O)C1CCN(c2ccc(-c3cc(-c4cnn(C)c4)cn4ncc(C#N)c34)cn2)CC1)C(F)(F)F (stereo not drawn) [Example 235, 1-(5-(3-cyano-6-(1-methyl-1H-pyrazol-4-yl)pyrazolo[1,5-a]pyridin-4-yl)pyridin-2-yl)-N-(3,3,3-trifluoro-2-methoxypropyl) piperidine-4-carboxamide]	7.4 nM	1510 nM	5.1 nM	–	–	–	–
CC(C)Cn1cc(-c2cc(-c3ccc(N4CCN(Cc5ccccc5)CC4)nc3)c3c(C#N)cnn3c2)cn1 [Example 612, 4-(6-(4-benzylpiperazin-1-yl)pyridin-3-yl)-6-(1-isobutyl-1H-pyrazol-4-yl)pyrazolo[1,5-a]pyridine-3-carbonitrile]	38.2 nM	–	–	–	431 nM	–	5.2 nM
C[C@H](CO)Cn1cc(-c2cc(-c3ccc(N4CCN(Cc5ccccc5)CC4)nc3)c3c(C#N)cnn3c2)cn1 [Example 593, (S)-4-(6-(4-benzylpiperazin-1-yl)pyridine-3-yl)-6-(1-(3-hydroxy-2-methylpropyl)-1H-pyrazol-4-yl)pyrazolo[1,5-a]pyridine-3-carbonitrile]	13.3 nM	–	–	–	154 nM	–	12.4 nM
Cn1cc(-c2cc(-c3ccc(N4CCC(NC(=O)C(C)(C)O)CC4)nc3)c3c(C#N)cnn3c2)cn1 [Example 179, N-(1-(5-(3-cyano-6-(1-methyl-1H-pyrazol-4-yl)pyrazolo[1,5-a]pyridin-4-yl)pyridin-2-yl)piperidin-4-yl)-2-hydroxy-2-methylpropanamide]	18 nM	547 nM	30.8 nM	–	–	–	–
